# Experimental data taken from EP0489581A2, “Cosmetic composition” (UNILEVER PLC, priority 1990, dated 1992).
# Tested on: skin surface
# Assay: Body shampoo streak of 0.1% EtNic against placebo on the other side (erythema meter, Cyclops pyrometer)
# Type: in vivo, human
# Set-up: ERYTHEMA METER AN / ERYTHEMA METER FA / ERYTHEMA METER UA / ERYTHEMA METER BR / ERYTHEMA METER SH / ERYTHEMA METER WA / ERYTHEMA METER HI / ERYTHEMA METER TH / ERYTHEMA METER CA: scale not given here; TEMPERATURE CHANGE FA / TEMPERATURE CHANGE UA / TEMPERATURE CHANGE BR / TEMPERATURE CHANGE SH / TEMPERATURE CHANGE WA / TEMPERATURE CHANGE HI / TEMPERATURE CHANGE TH / TEMPERATURE CHANGE CA / TEMPERATURE CHANGE AN: unit not given here
# Conditions: for ERYTHEMA METER AN / TEMPERATURE CHANGE AN / ERYTHEMA METER CA / TEMPERATURE CHANGE CA / ERYTHEMA METER HI / TEMPERATURE CHANGE HI / ERYTHEMA METER FA / TEMPERATURE CHANGE FA / ERYTHEMA METER BR / TEMPERATURE CHANGE BR / ERYTHEMA METER SH / TEMPERATURE CHANGE SH / ERYTHEMA METER TH / TEMPERATURE CHANGE TH / ERYTHEMA METER UA / TEMPERATURE CHANGE UA / ERYTHEMA METER WA / TEMPERATURE CHANGE WA: 0.1% EtNic; for ERYTHEMA METER AN / TEMPERATURE CHANGE AN: ankle; for ERYTHEMA METER CA / TEMPERATURE CHANGE CA: calf; for ERYTHEMA METER HI / TEMPERATURE CHANGE HI: hip; for ERYTHEMA METER FA / TEMPERATURE CHANGE FA: mid forearm; for ERYTHEMA METER BR / TEMPERATURE CHANGE BR: side breast; for ERYTHEMA METER SH / TEMPERATURE CHANGE SH: side shoulder; for ERYTHEMA METER TH / TEMPERATURE CHANGE TH: thigh; for ERYTHEMA METER UA / TEMPERATURE CHANGE UA: upper arm; for ERYTHEMA METER WA / TEMPERATURE CHANGE WA: waist
# Description: A subject showered in the conventional way but without shampoo or soap. The redness and temperature of the skin surface was measured at symmetrical points from the mid forearm down the body to the ankle, after the excess water had been removed by light towelling. The person re-showered and between 2 and 3 grammes of shampoo according to Example 5 was streaked down one side of the body in a broad line. The body shampoo was rubbed into a lather periodically during the two minutes. A placebo shampoo of corresponding composition was applied first to one side of the body and then the time started when the shampoo with the ethyl nicotinate was applied to the other side. […] The redness was measured with the erythema meter whilst the temperature was measured with a Cyclops pyrometer at ten sites on each side. The time was taken as the mean of the two times for each pair of sites. The time course was followed for about 50 minutes. After about 210 minutes the experiment was repeated, but treating the opposite sides. The result shown below are the differences in redness and temperature of the corresponding sites.
# [1] = left hand side, mean time 0.00 (baseline), difference of corresponding sites
# [2] = left hand side, mean time 17.56, difference of corresponding sites
# [3] = left hand side, mean time 31.56, difference of corresponding sites
# [4] = left hand side, mean time 44.89, difference of corresponding sites
# [5] = left hand side, mean time 59.61, difference of corresponding sites
# [6] = left hand side, mean time 77.21, difference of corresponding sites
# [7] = left hand side, time 10.00, mean time 10.37, difference of corresponding sites
# [8] = left hand side, time 25.00, mean time 24.98, difference of corresponding sites
# [9] = left hand side, time 38.00, mean time 38.30, difference of corresponding sites
# [10] = left hand side, time 53.00, mean time 52.87, difference of corresponding sites
# [11] = right hand side, mean time 0.00 (baseline), difference of corresponding sites
# [12] = right hand side, time 10.00, mean time 9.79, difference of corresponding sites
# [13] = right hand side, time 26.00, mean time 26.13, difference of corresponding sites
# [14] = right hand side, time 42.00, mean time 42.25, difference of corresponding sites
# [15] = right hand side, time 210.00, mean time 209.78, difference of corresponding sites
# [16] = all the sites, shampoo according to Example 5, two minutes
structure (smiles),measurement,setting,value
"CCOC(=O)c1cccnc1 [EtNic, ethyl nicotinate]",ERYTHEMA METER AN,[1],-0.53
same,TEMPERATURE CHANGE AN,[1],-0.10
same,TEMPERATURE CHANGE AN,[2],0.30
same,TEMPERATURE CHANGE AN,[3],-0.20
same,TEMPERATURE CHANGE AN,[4],0.70
same,TEMPERATURE CHANGE AN,[5],0.80
same,TEMPERATURE CHANGE AN,[6],0.30
same,ERYTHEMA METER AN,[7],0.29
same,ERYTHEMA METER AN,[8],0.56
same,ERYTHEMA METER AN,[9],-0.43
same,ERYTHEMA METER AN,[10],-0.25
same,ERYTHEMA METER CA,[1],-0.26
same,TEMPERATURE CHANGE CA,[1],-0.30
same,TEMPERATURE CHANGE CA,[2],2.90
same,TEMPERATURE CHANGE CA,[3],2.30
same,TEMPERATURE CHANGE CA,[4],1.10
same,TEMPERATURE CHANGE CA,[5],0.90
same,TEMPERATURE CHANGE CA,[6],0.50
same,ERYTHEMA METER CA,[7],0.26
same,ERYTHEMA METER CA,[8],0.41
same,ERYTHEMA METER CA,[9],-0.17
same,ERYTHEMA METER CA,[10],-0.12
same,ERYTHEMA METER HI,[1],0.03
same,TEMPERATURE CHANGE HI,[1],0.10
same,TEMPERATURE CHANGE HI,[2],1.10
same,TEMPERATURE CHANGE HI,[3],3.70
same,TEMPERATURE CHANGE HI,[4],3.30
same,TEMPERATURE CHANGE HI,[5],2.90
same,TEMPERATURE CHANGE HI,[6],2.20
same,ERYTHEMA METER HI,[7],0.74
same,ERYTHEMA METER HI,[8],0.31
same,ERYTHEMA METER HI,[9],0.12
same,ERYTHEMA METER HI,[10],0.13
same,ERYTHEMA METER FA,[1],-0.65
same,TEMPERATURE CHANGE FA,[1],-0.20
same,TEMPERATURE CHANGE FA,[2],-0.50
same,TEMPERATURE CHANGE FA,[3],0.20
same,TEMPERATURE CHANGE FA,[4],-0.30
same,TEMPERATURE CHANGE FA,[5],0.20
same,TEMPERATURE CHANGE FA,[6],0.00
same,ERYTHEMA METER FA,[7],0.39
same,ERYTHEMA METER FA,[8],0.00
same,ERYTHEMA METER FA,[9],-0.06
same,ERYTHEMA METER FA,[10],0.05
same,ERYTHEMA METER BR,[1],-0.12
same,TEMPERATURE CHANGE BR,[1],-1.10
same,TEMPERATURE CHANGE BR,[2],4.80
same,TEMPERATURE CHANGE BR,[3],4.80
same,TEMPERATURE CHANGE BR,[4],4.30
same,TEMPERATURE CHANGE BR,[5],1.70
same,TEMPERATURE CHANGE BR,[6],1.00
same,ERYTHEMA METER BR,[7],1.09
same,ERYTHEMA METER BR,[8],0.71
same,ERYTHEMA METER BR,[9],0.91
same,ERYTHEMA METER BR,[10],0.41
same,ERYTHEMA METER SH,[1],0.00
same,TEMPERATURE CHANGE SH,[1],0.40
same,TEMPERATURE CHANGE SH,[2],3.40
same,TEMPERATURE CHANGE SH,[3],4.50
same,TEMPERATURE CHANGE SH,[4],3.30
same,TEMPERATURE CHANGE SH,[5],1.50
same,TEMPERATURE CHANGE SH,[6],0.30
same,ERYTHEMA METER SH,[7],1.08
same,ERYTHEMA METER SH,[8],1.06
same,ERYTHEMA METER SH,[9],0.77
same,ERYTHEMA METER SH,[10],0.38
same,ERYTHEMA METER TH,[1],-0.23
same,TEMPERATURE CHANGE TH,[1],0.10
same,TEMPERATURE CHANGE TH,[2],3.70
same,TEMPERATURE CHANGE TH,[3],3.20
same,TEMPERATURE CHANGE TH,[4],2.50
same,TEMPERATURE CHANGE TH,[5],1.90
same,TEMPERATURE CHANGE TH,[6],1.30
same,ERYTHEMA METER TH,[7],0.47
same,ERYTHEMA METER TH,[8],0.43
same,ERYTHEMA METER TH,[9],0.28
same,ERYTHEMA METER TH,[10],0.17
same,ERYTHEMA METER UA,[1],-0.28
same,TEMPERATURE CHANGE UA,[1],0.00
same,TEMPERATURE CHANGE UA,[2],3.10
same,TEMPERATURE CHANGE UA,[3],3.60
same,TEMPERATURE CHANGE UA,[4],2.70
same,TEMPERATURE CHANGE UA,[5],1.80
same,TEMPERATURE CHANGE UA,[6],1.40
same,ERYTHEMA METER UA,[7],1.35
same,ERYTHEMA METER UA,[8],0.67
same,ERYTHEMA METER UA,[9],0.82
same,ERYTHEMA METER UA,[10],0.23
same,ERYTHEMA METER WA,[1],0.03
same,TEMPERATURE CHANGE WA,[1],-0.30
same,TEMPERATURE CHANGE WA,[2],4.80
same,TEMPERATURE CHANGE WA,[3],6.80
same,TEMPERATURE CHANGE WA,[4],6.40
same,TEMPERATURE CHANGE WA,[5],5.00
same,TEMPERATURE CHANGE WA,[6],3.60
same,ERYTHEMA METER WA,[7],0.66
same,ERYTHEMA METER WA,[8],0.44
same,ERYTHEMA METER WA,[9],0.79
same,ERYTHEMA METER WA,[10],0.05
same,ERYTHEMA METER AN,[11],0.08
same,ERYTHEMA METER AN,[12],0.62
same,ERYTHEMA METER AN,[13],0.57
same,ERYTHEMA METER AN,[14],0.57
same,ERYTHEMA METER AN,[15],0.53
same,ERYTHEMA METER CA,[11],0.06
same,ERYTHEMA METER CA,[12],0.87
same,ERYTHEMA METER CA,[13],0.75
same,ERYTHEMA METER CA,[14],0.58
same,ERYTHEMA METER CA,[15],0.26
same,ERYTHEMA METER HI,[11],0.44
same,ERYTHEMA METER HI,[12],0.92
same,ERYTHEMA METER HI,[13],0.55
same,ERYTHEMA METER HI,[14],0.50
same,ERYTHEMA METER HI,[15],-0.03
same,ERYTHEMA METER FA,[11],0.20
same,ERYTHEMA METER FA,[12],-0.28
same,ERYTHEMA METER FA,[13],0.51
same,ERYTHEMA METER FA,[14],0.41
same,ERYTHEMA METER FA,[15],0.65
same,ERYTHEMA METER BR,[11],0.06
same,ERYTHEMA METER BR,[12],1.20
same,ERYTHEMA METER BR,[13],1.48
same,ERYTHEMA METER BR,[14],0.72
same,ERYTHEMA METER BR,[15],0.12
same,ERYTHEMA METER SH,[11],0.12
same,ERYTHEMA METER SH,[12],1.81
same,ERYTHEMA METER SH,[13],1.61
same,ERYTHEMA METER SH,[14],0.81
same,ERYTHEMA METER SH,[15],0.00
same,ERYTHEMA METER TH,[11],0.07
same,ERYTHEMA METER TH,[12],0.87
same,ERYTHEMA METER TH,[13],0.43
same,ERYTHEMA METER TH,[14],0.04
same,ERYTHEMA METER TH,[15],0.23
same,ERYTHEMA METER UA,[11],0.38
same,ERYTHEMA METER UA,[12],0.89
same,ERYTHEMA METER UA,[13],1.40
same,ERYTHEMA METER UA,[14],0.74
same,ERYTHEMA METER UA,[15],0.28
same,ERYTHEMA METER WA,[11],0.06
same,ERYTHEMA METER WA,[12],1.16
same,ERYTHEMA METER WA,[13],1.09
same,ERYTHEMA METER WA,[14],0.70
same,ERYTHEMA METER WA,[15],-0.03
same,redness,[16],increase
same,temperature,[16],increase
same,maximum temperature difference,at the waist,seven
